Laboratory results: US11213548B2, “Modulatable switch for selection of donor modified cells” (CSL Behring Gene Therapy, Inc., priority 2017, dated 2022)

What was measured:
Assay type in all cases: cell-based
[1] = tested on: K562 cells; test: Positive selection with 6TG of HPRT knockdown / knockout K562 cells (ex vivo)
Method: K562 cells were transduced with a vector including a nucleic acid sequence designed to knockdown HPRT and a nucleic acid sequence encoding the green fluorescent protein (GFP) (MOI=1/2/5); or were transfected with a nanocapsule including CRISPR/Cas9 and a sgRNA to HPRT (100 ng/5×10^4 cells) at day zero (0). 6-TG was added into the medium from day 3 through day 14. The medium was refreshed every 3 to 4 days. GFP was analyzed on flow machine and InDel % as analyzed with T7E1 assay. FIG. 9A illustrates that the GFP+ population of transduced K562 cells increased from day 3 to day 14 under treatment of 6TG; while the GFP+ population was almost steady without 6-TG treatment. […] It should be noted that 6TG selection process occurred much faster on HPRT knockout cells as compared with the HPRT knockdown cells (MOI=1) at the same concentration of 300 nM of 6TG from day 3 to day 14. The difference between knockdown and knockout could be explained by some level of residual HPRT by the RNAi knockdown approach as compared with the full elimination of HPRT by the knockout approach. Therefore, HPRT-knockout cells were believed to have a much higher tolerance against 6TG and are believed to grow much faster at higher dosages of 6TG (900 nM) compared with HPRT-knockdown cells.

[2] = tested on: CEM cells; test: Positive selection with 6TG of HPRT knockdown / knockout CEM cells (ex vivo)
Method: CEM cells were transduced with a vector including a nucleic acid sequence designed to knockdown HPRT and a nucleic acid sequence encoding the green fluorescent protein or transfected with a nanocapsule including CRISPR/Cas9 and a sgRNA to HPRT at day 0. 6-TG was added into the medium from day 3 to day 17. The medium was refreshed every 3 to 4 days. GFP as analyzed on flow machine and InDel % is analyzed by T7E1 assay. FIG. 10A illustrates that the GFP+ population of transduced […] cells increased from day 3 to day 17 under treatment of 6TG while GFP+ population was almost steady without 6-TG. […] It should be noted that 6TG selection process occurred faster on HPRT knockout cells rather than HPRT knockdown cells (MOI=1) at the same concentration of 6TG from day 3 to day 17.

[3] = tested on: K562 cells; test: Negative selection with MTX for K562 cells transduced with different lentiviral vector designs
Method: K562 cells were transduced with either TL20cw-GFP virus soup at dilution factor of 16, TL2Ocw-Ubc/GFP-7SK/sh734 (one sequentially encoding GFP and a shRNA designed to knockdown HPRT) virus soup at dilution factor of 16 and TL2Ocw-7SK/sh734-UBC/GFP (one sequentially encoding a shRNA designed to knockdown HPRT and GFP) virus soup at dilution factor of 16, respectively (see FIG. 13). All cells were cultured with medium containing 0.3 uM of MTX 3 days later. Also shown in FIG. 13 are K562 cells which were transduced by TL20cw-7SK/sh734-UBC/GFP (one encoding a nucleic acid encoding a shRNA designed to knockdown HPRT) virus soup at dilution factor of 1024 one month earlier and where GFP-sh734-transduced cells were positively selected with 300 nM of 6TG 6-TG was selection during that time to reach more than 90% of GFP+ population. […] The relative sh734 expression per VCN for sh734-GFP-transduced cells and GFP-sh73-transduced cells were measured.

[4] = tested on: CEM cells; test: Negative selection with MTX or MPA of transduced or transfected CEM cells; details: day 0 to day 14; for GFP population of transduced cells under treatment: CEM experiment (K562 in the source), steady for untreated group
[5] = tested on: K562 cells; test: Negative selection with MTX of transduced or transfected K562 cells; details: 0.3 uM MTX, day 0 to day 14
Method: Transduced or transfected K562 cells (such as those from Example 6) were cultured with or without MTX from day 0 to day 14. The medium was refreshed every 3 to 4 days. GFP was analyzed on flow machine and InDel % was analyzed by T7E1 assay. […] FIG. 11B illustrates that the transfected K562 cells were eliminated under treatment with 0.3 uM of MTX at a faster pace as compared with the HPRT-KD population.

SMILES: Nc1nc2nc[nH]c2c(=S)[nH]1 [6TG, 6-thioguanine]
- Speed of selection of HPRT knockout K562 cells, higher dosage versus 300/600 nM of 6TG ([1]; 900 nM 6TG compared with 300/600 nM, day 3 to 14): faster selection
- HPRT knockout population of K562 cells under treatment of 6TG ([1]; CRISPR/Cas9 + sgRNA to HPRT nanocapsule, day 3 to 14, InDel % by T7E1 assay): increased
- GFP+ population of transduced K562 cells under treatment of 6TG ([1]; HPRT knockdown vector with GFP, MOI=1/2/5, 6-TG in medium day 3 to day 14, flow, almost steady without 6-TG): increased
- Speed of 6TG selection on HPRT knockout cells compared with HPRT knockdown cells (MOI=1) ([1]; K562, 300 nM 6TG, day 3 to day 14): much faster
- Speed of selection of HPRT knockout CEM cells, higher dosage versus 300/600 nM of 6TG ([2]; 900 nM 6TG compared with 300/600 nM, day 3 to 17): faster selection
- GFP+ population of transduced cells under treatment of 6TG ([2]; CEM experiment (K562 in the source), HPRT knockdown vector with GFP, 6-TG day 3 to day 17, almost steady without 6-TG): increased
- Speed of 6TG selection on HPRT knockout cells compared with HPRT knockdown cells (MOI=1) ([2]; CEM, same concentration of 6TG, day 3 to day 17): faster
- HPRT knockout population of CEM cells under treatment of 6TG ([2]; CRISPR/Cas9 + sgRNA to HPRT nanocapsule, day 3 to 17, InDel % by T7E1 assay): increased
- GFP+ population reached by positive selection with 6TG ([3]; 300 nM 6TG, K562 transduced at dilution factor of 1024 one month earlier): more than 90%

SMILES: COc1c(C)c2c(c(O)c1C/C=C(\C)CCC(=O)O)C(=O)OC2 [MPA, mycophenolic acid]
- GFP population of transduced cells under treatment ([4]; 1 uM MPA): decreased
- HPRT knockout population of CEM cells under treatment ([4]; 1 uM MPA): eliminated at a faster pace
- GFP population of transduced cells under treatment ([4]; 10 uM MPA): decreased
- HPRT knockout population of CEM cells under treatment ([4]; 10 uM MPA): eliminated at a faster pace

SMILES: CN(Cc1cnc2nc(N)nc(N)c2n1)c1ccc(C(=O)N[C@@H](CCC(=O)O)C(=O)O)cc1 [MTX, methotrexate]
- GFP population of transduced K562 cells under treatment of MTX ([5]; HPRT knockdown, steady without MTX): decreased
- Transfected (HPRT knockout) K562 cells under treatment with MTX ([5]; faster pace than HPRT-KD population): eliminated
- GFP population of transduced cells under treatment ([4]; 0.3 uM MTX): decreased
- HPRT knockout population of CEM cells under treatment ([4]; 0.3 uM MTX): eliminated at a faster pace
- Deselection of transduced K562 cells by methotrexate ([3]; 0.3 uM MTX, sh734-high-expression versus sh734-low-expression lentiviral vector): could only deselect cells transduced with sh734-high-expression lentiviral vector
